Each structure is given as a SMILES string.

For the assay, the target named is T1, NKCC1 (Homo sapiens, UniProt P55011).
T1 construct: endogenous in cells; host or cells: native HEK293 cells
T1 sequence (P55011 1-1212): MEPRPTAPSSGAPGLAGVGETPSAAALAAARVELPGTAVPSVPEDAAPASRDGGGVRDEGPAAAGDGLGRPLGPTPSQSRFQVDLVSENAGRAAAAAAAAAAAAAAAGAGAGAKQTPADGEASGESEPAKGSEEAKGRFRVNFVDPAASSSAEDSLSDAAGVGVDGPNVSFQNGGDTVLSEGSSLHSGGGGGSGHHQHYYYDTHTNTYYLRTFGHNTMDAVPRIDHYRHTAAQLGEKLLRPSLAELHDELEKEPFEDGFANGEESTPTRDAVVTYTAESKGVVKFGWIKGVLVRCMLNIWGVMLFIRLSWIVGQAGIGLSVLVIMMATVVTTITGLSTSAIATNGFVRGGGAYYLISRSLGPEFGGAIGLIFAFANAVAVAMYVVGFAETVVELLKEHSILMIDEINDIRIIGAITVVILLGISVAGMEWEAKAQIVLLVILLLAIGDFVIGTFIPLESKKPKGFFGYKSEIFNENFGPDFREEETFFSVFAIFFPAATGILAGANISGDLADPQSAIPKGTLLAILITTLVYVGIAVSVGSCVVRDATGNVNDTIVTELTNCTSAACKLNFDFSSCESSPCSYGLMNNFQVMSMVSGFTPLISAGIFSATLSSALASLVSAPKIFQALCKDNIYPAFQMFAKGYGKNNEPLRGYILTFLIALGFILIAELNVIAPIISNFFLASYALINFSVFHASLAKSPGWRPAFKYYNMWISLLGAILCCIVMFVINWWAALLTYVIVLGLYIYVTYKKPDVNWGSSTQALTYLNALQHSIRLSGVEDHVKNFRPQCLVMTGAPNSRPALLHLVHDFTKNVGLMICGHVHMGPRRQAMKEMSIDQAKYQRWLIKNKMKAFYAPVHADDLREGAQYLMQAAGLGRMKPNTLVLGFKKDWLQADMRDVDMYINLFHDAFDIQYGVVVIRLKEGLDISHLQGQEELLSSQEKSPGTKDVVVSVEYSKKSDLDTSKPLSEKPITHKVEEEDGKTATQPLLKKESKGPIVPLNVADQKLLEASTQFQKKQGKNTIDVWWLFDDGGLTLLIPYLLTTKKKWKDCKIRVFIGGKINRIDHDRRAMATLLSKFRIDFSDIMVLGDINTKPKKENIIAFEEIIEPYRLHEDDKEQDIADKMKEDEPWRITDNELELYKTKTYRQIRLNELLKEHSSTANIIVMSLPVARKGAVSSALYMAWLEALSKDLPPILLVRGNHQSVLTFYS
Put plainly: NKCC1-mediated K+ influx (83Rb tracer uptake) in native HEK293 cells, hypertonic saline, 100 μM ouabain. It counts as cell-based. Particulars: HEK293, no drug = 1000, 20 μM bumetanide = 0; for inhibition at 2 µM: read-out: NKCC1 mediated flux inhibition at 2 μM (%); for inhibition at 20 µM: read-out: NKCC1 mediated flux inhibition at 20 μM (%). From the text:
The compounds of the invention have been tested for evaluating their potency in inhibiting the NKCC1 channel. The test used is a cellular assay expressing the NKCC1 channel: HEK293 cells are human cells derived from embryonic kidney. The inhibitory activity of the compounds has been evaluated in measuring the modification of the potassium flux at 2 concentrations, as described hereafter in the biological protocol.
HEK293 cells are human cells derived from embryonic kidney. They express at their plasma membranes proteins that transport potassium (K^+). Among these proteins is the Na—K-2Cl cotransporter or NKCC1. This transporter contributes to 40-50% of K^+ influx into the cells. The remaining of K^+ transport is mediated by the Na^+/K^+-ATPase (also known as Na^+ pump or Na^+/K^+ pump), which also contributes some 40-50% of the influx basal flux of 5-10%, which is mainly due to K^+ channels (FIG. 1A). Thus, the HEK293 cell in culture is an ideal model to study the function of NKCC1 and test compounds that inhibits its transport.
The assay to measure NKCC1 function was optimized to obtain the next signal to noise ratio: • a. A slightly hypertonic saline was used to stimulate NKCC1 function. […] By consistent use of this simple manipulation, the NKCC1 signal was enhanced. • b. Ouabain, an inhibitor of the Na^+/K^+ pump, was used at 100 μM. […] A radioactive isotope was used to trace the inward movement of K^+ into the cell (influx). This allowed for highly precise measurements of K^+ influx. Because radioactive isotopes of K^+ had very short half-lives, radioactive isotopes of Rb^+ were used. Rubidium was a monovalent cation which was readily transporter at the K^+ binding site by many transporters and channels. Rb^+ was a congener of K^+, being transported undistinguishably from K^+. ^83Rb (half-life of 83 days) was used since ^86Rb (half-life of 19.6 days) is no longer commercially available. The ^83Rb isotope was used as a tracer, i.e. at a very low amounts to trace the movement of K^+.
K^+ influx measured in native HEK293 was in the range of 7000-9000 pmoles K^+ per mg protein per min. In the presence of 20 μM Ref 1, the flux was reduced to 600-900 pmoles K^+ per mg protein per min. Thus, there was a very solid dynamic range. In each experiment, the flux without Ref 1 was set at 1000 (equivalent to 100.0%) and the flux with 20 μM bumetanide was set at 0 (equivalent to 0%).
For the flux experiments, 35-mm culture dishes were coated with 0.1 mg/mL poly-L-lysine and placed in large 20×20 [square] dishes. For convenience, the poly-L-lysine was placed in the dishes the day before the experiment. Before plating the cells, the poly-L-lysine was aspirated, and each dish washed twice with 1 mL sterile water. Cells from 3 confluent 10-cm dishes were detached with trypsin and resuspended into 49 mL complete medium. Cells (2 mL/35-mm dish) were plated in 24 dishes and allowed to attach for at least 2 hours prior to the flux. This setup allowed the measurement of 8 conditions in triplicates. For the flux, culture medium was aspirated and replaced with 1 mL saline for a preincubation period of 15 min. The saline was aspirated and replaced with 1 mL identical saline containing 0.25 μCi/mL 83Rb for 15 min. Following the uptake period, the radioactive solution was aspirated, and the cells washed 3 times with ice-cold saline. Cells were then lyzed with 500 μl 0.25N NaOH for 1 hour, neutralized with 250 μL glacial acetic acid and 300 μL and 30 μL aliquots were used for μ-scintillation counting and protein assays, respectively. Two 5 μL of each flux solution was used to determine cpm and relate those cpm to nmoles K^+. Potassium influx was expressed in nmoles K^+ per mg protein per min. Note that within an experiment, groups of 3 dishes were separated 2 min apart for easy handling. Also note that since all dishes were plated with a homogeneous cell suspension, and all dishes were identical, the protein content was measured from a subset of dishes. […]

As for `CCCCNc1cc(C(=O)OC)cc(S(=N)(=O)N2CCC(c3ccccc3)CC2)c1Oc1ccccc1` (centres unmarked) [Compound 18, methyl 3-(butylamino)-4-phenoxy-5-[(4-phenyl-1-piperidyl)sulfonimidoyl]benzoate], the inhibition at 2 µM lay within 30 to 50% and the inhibition at 20 µM fell in the range of 10 to 30%. Take `CCCCNc1cc(C(=O)NOC)cc(S(=N)(=O)NCc2cccc(Cl)c2)c1Oc1ccccc1` (centres unmarked) [Compound 117, 3-(butylamino)-5-[[(3-chlorophenyl)methylamino]sulfonimidoyl]-N-methoxy-4-phenoxy-benzamide]: the inhibition at 2 µM is 30 to 50% and the inhibition at 20 µM fell in the range of 10 to 30%. In the case of `CCCCNc1cc(C(=O)O)cc(S(=N)(=O)N2CCOCC2)c1Oc1ccccc1` (centres unmarked) [Compound 56, 3-(butylamino)-5-(morpholinosulfonimidoyl)-4-phenoxy-benzoic acid], the inhibition at 20 µM lay within 30 to 50%. In the case of `CCCCNc1cc(C(=O)O)cc(S(=O)(=Nc2ccccc2)N2CCCCCC2)c1Oc1ccccc1` (stereo not drawn) [Compound 101, 3-[S-(azepan-1-yl)-N-phenyl-sulfonimidoyl]-5-(butylamino)-4-phenoxy-benzoic acid], the inhibition at 2 µM was in the range of 10 to 30% and the inhibition at 20 µM is 10 to 30%. As to `CCCCNc1cc(C(=O)O)cc(S(=N)(=O)Nc2ccc(Cl)cc2)c1Oc1ccccc1` (centres unmarked) [Compound 78, 3-(butylamino)-5-[(4-chloroanilino)sulfonimidoyl]-4-phenoxy-benzoic acid], the inhibition at 2 µM fell in the range of 50 to 75% and the inhibition at 20 µM was at least 75%. The matching figures for `CCCCNc1cc(C(=O)O)cc(S(=N)(=O)N(C)C)c1Oc1ccccc1` (centres unmarked) [Compound 52, 3-(butylamino)-5-(dimethylaminosulfonimidoyl)-4-phenoxy-benzoic acid]: 30 to 50% and 50 to 75%. For `CCCCNc1cc(C(=O)OC)cc(S(=N)(=O)Nc2cccnc2)c1Oc1ccccc1` (centres unmarked) [Compound 16, methyl 3-(butylamino)-4-phenoxy-5-[(3-pyridylamino)sulfonimidoyl]benzoate], the inhibition at 2 µM is 30 to 50% and the inhibition at 20 µM lay within 10 to 30%. As to `CCCCNc1cc(C(=O)OC)cc(S(=N)(=O)Nc2ccncc2)c1Oc1ccccc1` (centres unmarked) [Compound 44, methyl 3-(butylamino)-4-phenoxy-5-[(4-pyridylamino)sulfonimidoyl]benzoate], the inhibition at 2 µM was in the range of 30 to 50% and the inhibition at 20 µM fell in the range of 10 to 30%. Regarding `CCCCNc1cc(C(=O)OC)cc(S(=N)(=O)N2CCCCCC2)c1Oc1ccccc1` (centres unmarked) [Compound 11, methyl 3-(azepan-1-ylsulfonimidoyl)-5-(butylamino)-4-phenoxy-benzoate], the inhibition at 20 µM was 50 to 75%. Consider `CCCCNc1cc(C(=O)O)cc(S(=N)(=O)NC2CC2)c1Oc1ccccc1` (centres unmarked) [Compound 60, 3-(butylamino)-5-[(cyclopropylamino)sulfonimidoyl]-4-phenoxy-benzoic acid], for which the inhibition at 2 µM lay in the range of 10 to 30% and the inhibition at 20 µM was in the range of 50 to 75%. Regarding `CCCCNc1cc(C(=O)N(C)C)cc(S(=N)(=O)Nc2ccccc2)c1Oc1ccccc1` (centres unmarked) [Compound 105, 3-(anilinosulfonimidoyl)-5-(butylamino)-N,N-dimethyl-4-phenoxy-benzamide], the inhibition at 2 µM fell in the range of 30 to 50% and the inhibition at 20 µM fell in the range of 10 to 30%. The matching figures for `CCCCNc1cc(C(=O)O)cc(S(=N)(=O)NCC2CCN(C(C)=O)CC2)c1Oc1ccccc1` (centres unmarked) [Compound 97, 3-[[(1-acetyl-4-piperidyl)methylamino]sulfonimidoyl]-5-(butylamino)-4-phenoxy-benzoic acid]: 30 to 50% and at least 75%.

Consider `CCCCNc1cc(C(=O)NCCOC)cc(S(=N)(=O)NCc2cccc(Cl)c2)c1Oc1ccccc1` (centres unmarked) [Compound 118, 3-(butylamino)-5-[[(3-chlorophenyl)methylamino]sulfonimidoyl]-N-(2-methoxyethyl)-4-phenoxy-benzamide], for which the inhibition at 2 µM was 10 to 30% and the inhibition at 20 µM is 10 to 30%. Turning to `CCCCNc1cc(C(=O)O)cc(S(=N)(=O)NCC2CCCCC2)c1Oc1ccccc1` (centres unmarked) [Compound 62, 3-(butylamino)-5-[(cyclohexylmethylamino)sulfonimidoyl]-4-phenoxy-benzoic acid], the inhibition at 2 µM was 10 to 30% and the inhibition at 20 µM is at least 75%.

As to `CCCCNc1cc(C(=O)OC)cc(S(=N)(=O)Nc2cccc(OC)c2)c1Oc1ccccc1` (centres unmarked) [Compound 17, methyl 3-(butylamino)-5-[(3-methoxyanilino)sulfonimidoyl]-4-phenoxy-benzoate], the inhibition at 2 µM fell in the range of 10 to 30% and the inhibition at 20 µM lay in the range of 30 to 50%. The corresponding values for `CCCCNc1cc(C(=O)OC)cc(S(=N)(N)=O)c1Oc1ccccc1` (centres unmarked) [Compound 25, methyl 3-(aminosulfonimidoyl)-5-(butylamino)-4-phenoxy-benzoate] are 30 to 50% and 30 to 50%.

On to `CCCCNc1cc(C(=O)OC)cc(S(=N)(=O)NCc2cncnc2)c1Oc1ccccc1` (centres unmarked) [Compound 15, methyl 3-(butylamino)-4-phenoxy-5-[(pyrimidin-5-ylmethylamino)sulfonimidoyl]benzoate], for which the inhibition at 2 µM lay in the range of 30 to 50% and the inhibition at 20 µM was 30 to 50%.

For `CCCCNc1cc(C(=O)NCC(F)F)cc(S(=N)(=O)Nc2ccccc2)c1Oc1ccccc1` (centres unmarked) [Compound 110, 3-(anilinosulfonimidoyl)-5-(butylamino)-N-(2,2-difluoroethyl)-4-phenoxy-benzamide], the inhibition at 20 µM lay in the range of 10 to 30%.

With `CCCCNc1cc(C(=O)OC)cc(S(=N)(=O)N2CCOCC2)c1Oc1ccccc1` (centres unmarked) [Compound 6, methyl 3-(butylamino)-5-(morpholinosulfonimidoyl)-4-phenoxy-benzoate], the inhibition at 2 µM lay within 10 to 30% and the inhibition at 20 µM fell in the range of 30 to 50%.

The record behind these values is patent publication US20260374782A1, “NEW COMPOUNDS, PROCESSES FOR PREPARING THE SAME AND THEIR USE AS DRUGS” (B&A ONCOMEDICAL, priority 2022, published 2026).
